Measured values as given in patent US11096985B2, “Antimicrobial peptides, their variants and uses” (priority 2015, dated 2021).
Where a SMILES comes first, the peptide text is derived from it. [ ]: non-standard residue; d: D form.

Legend:
[1] = tested on: clinical strains of Escherichia coli; assay: MIC, clinical strains of E. coli; type: cell-based; set-up: unit: μg/ml; conditions: microdilution, Muller Hinton broth-cation adjusted, 0.02% BSA, 0.2% acetic acid
Method in brief: (§1)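 By broth microdilution, Chain peptides from 0.125 to 128 μg/ml were tested against clinical strains adjusted to 5.0×10^5 cfu/ml, with bacteria in MH broth and yeasts in Potato dextrose broth. After 20–24 h at 37 °C, the lowest peptide concentration without visible growth was scored as MIC.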

[2] = tested on: clinical strains of Klebsiella pneumoniae; assay: MIC, clinical strains of K. pneumoniae; type: cell-based; set-up: unit: μg/ml; conditions: microdilution, Muller Hinton broth-cation adjusted, 0.02% BSA, 0.2% acetic acid
Method in brief: as §1

[3] = tested on: clinical strains of Pseudomonas aeruginosa; assay: MIC, clinical strains of P. aeruginosa; type: cell-based; set-up: unit: μg/ml; conditions: microdilution, Muller Hinton broth-cation adjusted, 0.02% BSA, 0.2% acetic acid
Method in brief: as §1

[4] = tested on: clinical strains of Serratia marcescens; assay: MIC, clinical strains of Serratia marcescens; type: cell-based; set-up: unit: µg/mL; conditions: microdilution, Muller Hinton broth-cation adjusted, 0.02% BSA, 0.2% acetic acid
Method in brief: as §1

[5] = tested on: clinical strains of Proteus mirabilis; assay: MIC, clinical strains of Proteus mirabilis; type: cell-based; set-up: unit: µg/mL; conditions: microdilution, Muller Hinton broth-cation adjusted, 0.02% BSA, 0.2% acetic acid
Method in brief: as §1

[6] = tested on: clinical strains of Enterobacter cloacae; assay: MIC, clinical strains of Enterobacter cloacae; type: cell-based; set-up: unit: μg/ml; conditions: microdilution, Muller Hinton broth-cation adjusted, 0.02% BSA, 0.2% acetic acid
Method in brief: as §1

[7] = tested on: clinical strains of Staphylococcus aureus; assay: MIC, clinical strains of S. aureus; type: cell-based; set-up: unit: μg/ml; conditions: microdilution, Muller Hinton broth-cation adjusted, 0.02% BSA, 0.2% acetic acid
Method in brief: as §1

[8] = tested on: clinical strains of Streptococcus pneumoniae; assay: MIC, clinical strains of Streptococcus pneumoniae; type: cell-based; set-up: unit: µg/mL; conditions: microdilution, Muller Hinton broth-cation adjusted, 0.02% BSA, 0.2% acetic acid
Method in brief: as §1

[9] = tested on: clinical strains of Acinetobacter baumannii; assay: MIC, clinical strains of Acinetobacter baumannii; type: cell-based; conditions: microdilution, Muller Hinton broth-cation adjusted, 0.02% BSA, 0.2% acetic acid
Experimental: Minimum inhibition concentrations (MICs) were determined against Escherichia coli (ATCC 25922), Staphylococcus aureus (ATCC 25923), Klebsiella pneumoniae (ATCC 10031) and Pseudomonas aeruginosa (ATCC 27853). Also clinical strains of E. coli, K. pneumoniae, E. cloacae, P. aeruginosa, Serratia marcescens, Proteus mirabilis, S. pneumoniae, Acinetobacter baumannii, A. johnsonii and S. aureus were used for MICs assays. Additionally, clinical strains of yeast including Candida albicans, C. glabrata, C. parapsilosis and C. quillermondiae were used. The susceptibility of these microorganisms to Chain peptides were determined using micro broth dilution assay. Colonies of the respective microorganism from Muller Hinton (MH) agar plates incubated overnight were suspended in MH broth media and final concentration of microorganism was adjusted to 5.0×10^5 cfu/ml. An aliquot of 10 μl of each Chain peptide, or gentamicin, tetracycline as reference antibiotics were added in differing concentrations along with 90 μl of bacterial suspension to 96 well polypropylene plates and incubated at 37° C. for 20 to 24 hours. Concentrations of Chain peptides and reference antibiotics ranged from 0.125 to 128 μg/ml and the MICs were recorded as the lowest concentration with no visual growth of bacteria. Similarly, antifungal MICs were tested in Potato dextrose broth.
Clinical strains of yeasts including Candida albicans, C. glabrata, C. parapsilosis and C. quillermondiae were also tested with the 12 Chain peptides. The minimum inhibitory concentration (MICs) varied between these peptides and are presented in Tables 4a, 4b, 4c and 5a, 5b, 5c. Peptides Chain 105, 201 and 308 are broad spectrum antimicrobials with MICs between 0.5-32 μg/ml against all the bacteria and yeasts tested, except Serratia marcescens and Proteus mirabilis, against which the MICs were between 64-128 μg/ml. Peptide Chain 306 has narrow spectrum activity against E.coli at 1 μg/ml and for the rest of the bacterial strains at >32 μg/ml (FIG. 10).

[10] = tested on: clinical strains of Candida albicans; assay: MIC, clinical yeast strains, Candida albicans; type: cell-based; set-up: unit: μg/ml
Method in brief: as §1

[11] = tested on: clinical strains of C. glabrata; assay: MIC, clinical yeast strains, C. glabrata; type: cell-based, Candida glabrata; set-up: unit: μg/ml
Method in brief: as §1

[12] = tested on: clinical strains of C. parapsilosis; assay: MIC, clinical yeast strains, C. parapsilosis; type: cell-based, Candida parapsilosis; set-up: unit: μg/ml
Method in brief: as §1

[13] = tested on: clinical strains of C. quillermondiae; assay: MIC, clinical yeast strains, C. quillermondiae; type: cell-based; conditions: C. quillermondiae clinical yeast strain 1
Method in brief: as §1

CC[C@@H](C)[C@@H](NC(=O)[C@@H](CC(C)C)NC(=O)[C@@H](CCCNC(=N)N)NC(=O)[C@H](N)CCCNC(=N)N)C(=O)N[C@H](Cc1c[nH]c2ccccc12)C(=O)N[C@H](CCCNC(=N)N)C(=O)N[C@H](CCCNC(=N)N)C(=O)N[C@H](Cc1ccccc1)C(=O)N[C@H](CCCCN)C(=O)N[C@H](Cc1c[nH]c2ccccc12)C(=O)N[C@H](CC(C)C)C(=O)N[C@H](CCCNC(=N)N)C(=O)O [Chain204D] (H-[dR][dR][dL][dI][dW][dR][dR][dF][dK][dW][dL][dR]-OH) was tested, and the Minimum inhibitory concentration ([1]; Escherichia coli clinical strain 1) was 8, the Minimum inhibitory concentration ([1]; Escherichia coli clinical strain 2) was 1 and the Minimum inhibitory concentration ([1]; Escherichia coli clinical strain 3) was 1. The Minimum inhibitory concentration ([1]; Escherichia coli clinical strain 4) was 1, the Minimum inhibitory concentration ([1]; Escherichia coli clinical strain 5) was 1 and the Minimum inhibitory concentration ([2]; Klebsiella pneumoniae clinical strain 1) was 8. For the same compound, the Minimum inhibitory concentration ([2]; Klebsiella pneumoniae clinical strain 2) was 4, the Minimum inhibitory concentration ([2]; Klebsiella pneumoniae clinical strain 3) was 16 and the Minimum inhibitory concentration ([2]; Klebsiella pneumoniae clinical strain 4) was 4. For the same compound, the Minimum inhibitory concentration ([2]; Klebsiella pneumoniae clinical strain 5) was 2, the Minimum inhibitory concentration ([3]; Pseudomonas aeruginosa clinical strain 1) was 4 and the Minimum inhibitory concentration ([3]; Pseudomonas aeruginosa clinical strain 2) was 16. For the same compound, the Minimum inhibitory concentration ([3]; Pseudomonas aeruginosa clinical strain 3) was 8, the Minimum inhibitory concentration ([3]; Pseudomonas aeruginosa clinical strain 4) was 8 and the Minimum inhibitory concentration ([3]; Pseudomonas aeruginosa clinical strain 5) was 4. The Minimum inhibitory concentration ([4]; Serratia marcescens clinical strain 1) was >128, the Minimum inhibitory concentration ([4]; Serratia marcescens clinical strain 2) was >128 and the Minimum inhibitory concentration ([4]; Serratia marcescens clinical strain 3) was 128. The Minimum inhibitory concentration ([4]; Serratia marcescens clinical strain 4) was >128, the Minimum inhibitory concentration ([4]; Serratia marcescens clinical strain 5) was >128 and the Minimum inhibitory concentration ([5]; Proteus mirabilis clinical strain 1) was >128. For the same compound, the Minimum inhibitory concentration ([5]; Proteus mirabilis clinical strain 2) was 32, the Minimum inhibitory concentration ([5]; Proteus mirabilis clinical strain 3) was 64 and the Minimum inhibitory concentration ([5]; Proteus mirabilis clinical strain 4) was >128. For the same compound, the Minimum inhibitory concentration ([5]; Proteus mirabilis clinical strain 5) was >128, the Minimum inhibitory concentration ([6]; Enterobacter cloacae clinical strain 1) was 4 and the Minimum inhibitory concentration ([6]; Enterobacter cloacae clinical strain 2) was 8. For the same compound, the Minimum inhibitory concentration ([6]; Enterobacter cloacae clinical strain 3) was 4, the Minimum inhibitory concentration ([6]; Enterobacter cloacae clinical strain 4) was 8 and the Minimum inhibitory concentration ([6]; Enterobacter cloacae clinical strain 5) was 2. For the same compound, the Minimum inhibitory concentration ([7]; Staphylococcus aureus clinical strain 1) was 1, the Minimum inhibitory concentration ([7]; Staphylococcus aureus clinical strain 2) was 2 and the Minimum inhibitory concentration ([7]; Staphylococcus aureus clinical strain 3) was 2. For the same compound, the Minimum inhibitory concentration ([7]; Staphylococcus aureus clinical strain 4) was 1, the Minimum inhibitory concentration ([7]; Staphylococcus aureus clinical strain 5) was 1 and the Minimum inhibitory concentration ([8]; Streptococcus pneumoniae clinical strain 1) was 4. The Minimum inhibitory concentration ([8]; Streptococcus pneumoniae clinical strain 2) was 4, the Minimum inhibitory concentration ([8]; Streptococcus pneumoniae clinical strain 3) was 4 and the Minimum inhibitory concentration ([8]; Streptococcus pneumoniae clinical strain 4) was 4. It also gave a Minimum inhibitory concentration ([8]; Streptococcus pneumoniae clinical strain 5) of 4, a Minimum inhibitory concentration ([9]; Acinetobacter baumannii clinical strain 1) of 4 and a Minimum inhibitory concentration ([9]; Acinetobacter baumannii clinical strain 2) of 4. It also gave a Minimum inhibitory concentration ([9]; Acinetobacter baumannii clinical strain 3) of 4, a Minimum inhibitory concentration ([9]; Acinetobacter baumannii clinical strain 4) of 4 and a Minimum inhibitory concentration ([9]; Acinetobacter baumannii clinical strain 5) of 4. It also gave a Minimum inhibitory concentration ([10]; Candida albicans clinical yeast strain 1) of 8, a Minimum inhibitory concentration ([10]; Candida albicans clinical yeast strain 2) of 8 and a Minimum inhibitory concentration ([10]; Candida albicans clinical yeast strain 3) of 8. For the same compound, the Minimum inhibitory concentration ([10]; Candida albicans clinical yeast strain 4) was 8, the Minimum inhibitory concentration ([10]; Candida albicans clinical yeast strain 5) was 8 and the Minimum inhibitory concentration ([11]; C. glabrata clinical yeast strain 1) was 4. It also gave a Minimum inhibitory concentration ([11]; C. glabrata clinical yeast strain 2) of 8, a Minimum inhibitory concentration ([11]; C. glabrata clinical yeast strain 3) of 32 and a Minimum inhibitory concentration ([11]; C. glabrata clinical yeast strain 4) of 32. The Minimum inhibitory concentration ([12]; C. parapsilosis clinical yeast strain 1) was 4, the Minimum inhibitory concentration ([12]; C. parapsilosis clinical yeast strain 2) was 4 and the Minimum inhibitory concentration ([12]; C. parapsilosis clinical yeast strain 3) was 8. It also gave a Minimum inhibitory concentration ([12]; C. parapsilosis clinical yeast strain 4) of 8 and a Minimum inhibitory concentration [13] of 4.
